One data set has as its system A549. As to the kind of experiment: Cytotoxicity against human A549 cells. It counts as cell-based.
For data set [1], the system named is Mycobacterium tuberculosis. Briefly: microbe, parasite or virus in culture. The note with it: H37Rv, 48 h.
Description: Antimycobacterium activity against Mycobacterium tuberculosis H37Rv after 48 hrs by Resazurin microtiter assay
The test system of a further data set is Staphylococcus aureus. Briefly: Antimicrobial activity against Staphylococcus aureus. It counts as functional.
For another data set, the system named is Escherichia coli. As to the kind of experiment: Antimicrobial activity against Escherichia coli. It counts as functional.
A further data set relates to HepG2. As to the kind of experiment: Cytotoxicity against human HepG2 cells by SRB assay. The data set is classed as cell-based. Background: In SRB staining, fixed cells bind dye roughly in proportion to their protein.
Data set [2] deals with Mycobacterium tuberculosis. Briefly: Antimycobacterium activity against Mycobacterium tuberculosis H37Ra at dormant stage at 10 ug/ml. It counts as functional.
Data set [3] concerns the target T1, Dihydrofolate reductase (Homo sapiens, UniProt P00374).
T1 sequence (P00374 whole entry): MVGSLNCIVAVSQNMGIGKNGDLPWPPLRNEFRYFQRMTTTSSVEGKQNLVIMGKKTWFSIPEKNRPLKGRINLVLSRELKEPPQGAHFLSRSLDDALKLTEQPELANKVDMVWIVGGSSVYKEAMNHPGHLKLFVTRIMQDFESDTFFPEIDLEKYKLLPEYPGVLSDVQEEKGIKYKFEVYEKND
As to the kind of experiment: Inhibition of human DHFR using 45 uM DHF as substrate by spectrophotometry.

Data set [4] deals with T2, Dihydrofolate reductase (Mycobacterium tuberculosis, UniProt P9WNX1).
T2 sequence (P9WNX1 whole entry): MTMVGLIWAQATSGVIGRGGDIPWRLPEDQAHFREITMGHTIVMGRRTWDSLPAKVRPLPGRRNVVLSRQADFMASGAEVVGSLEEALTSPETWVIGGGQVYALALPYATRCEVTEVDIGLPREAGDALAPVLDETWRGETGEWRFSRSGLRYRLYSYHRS
Briefly: Inhibition of recombinant Mycobacterium tuberculosis DHFR using 45 uM DHF as substrate by spectrophotometry.

Values after ≈ are worked out from the molar mass of the structure shown.

`Cc1ccc(Oc2ccc(-c3nc(N)nc(N)n3)cc2)cc1`: the Activity result in the data set with A549 and in the data set with HepG2 was “Non-toxic” throughout. In addition, the figures for the MIC (in data set [1]; with Staphylococcus aureus; with Escherichia coli) were more than 418 µM, 426 µM (≈ 125 µg/mL) and 426 µM (≈ 125 µg/mL), respectively.
What is called inhibition is the change of the read-out against control, counted positive when it falls. Low values mean a response near the control, high ones a response far below the control. With `Nc1nc(N)nc(-c2ccc(Oc3ccccc3)cc2)n1`, the Activity entry in the data set on A549 and in the data set with HepG2 was “Non-toxic” in each case. Besides, the inhibition at 10 µg/mL in data set [2] stood at 19.4%. The MIC in data set [1] came out at 110 µM (≈ 30.6 µg/mL); with Staphylococcus aureus, 448 µM (≈ 125 µg/mL); in the data set with Escherichia coli it was 448 µM (≈ 125 µg/mL).
Take `Nc1nc(N)nc(-c2ccc(Sc3ccccc3)cc2)n1`: the Activity result in the data set on A549 and in the data set with HepG2 was “Non-toxic” throughout. In addition, at 10 µg/mL the inhibition in data set [2] was 11.7%. In addition, the MIC in data set [1] was found to be 212 µM (≈ 62.5 µg/mL); in the data set with Staphylococcus aureus it was 423 µM (≈ 125 µg/mL); with Escherichia coli it was 423 µM (≈ 125 µg/mL).
Regarding `Nc1nc(N)nc(-c2ccc(Oc3ccc(F)cc3)cc2)n1`, the Activity entry in the data set on A549 and with HepG2 was “Non-toxic” in each case. Also, the inhibition at 10 µg/mL in data set [2] amounted to 4.98%. Moreover, the MIC in data set [1] was more than 420 µM; in the data set on Staphylococcus aureus, 420 µM (≈ 125 µg/mL); against Escherichia coli, 420 µM (≈ 125 µg/mL).
Turning to `Nc1nc(N)nc(-c2ccc(Oc3ccc(Cl)cc3)cc2)n1`, the Activity result with A549 and in the data set with HepG2 was “Non-toxic” each time. The same compound returned an inhibition at 10 µg/mL in data set [2] of 81.1%. Further, the MIC in data set [1] is more than 398 µM; against Staphylococcus aureus it was 398 µM (≈ 125 µg/mL); in the data set with Escherichia coli, 398 µM (≈ 125 µg/mL).
For the compound `Cc1cccc(C)c1Oc1ccc(-c2nc(N)nc(N)n2)cc1`, the Activity entry in the data set on A549 and with HepG2 was “Non-toxic” each time. In data set [2], this compound yielded an inhibition at 10 µg/mL of 96.9%. Besides, the MIC in data set [1] was found to be 20.3 µM (≈ 6.25 µg/mL); against Staphylococcus aureus, 407 µM (≈ 125 µg/mL); with Escherichia coli, 407 µM (≈ 125 µg/mL).
Broadly, the IC50 is the point on the concentration scale where inhibition reaches its midpoint. With `Cc1cccc(Oc2ccc(-c3nc(N)nc(N)n3)cc2)c1C`, the Activity entry in the data set with A549 and with HepG2 was “Non-toxic” each time. In data set [2], this compound registered an inhibition at 10 µg/mL of 16.1%. Besides, the IC50 against Dihydrofolate reductase [3] is 42 µM; on Dihydrofolate reductase [4], 25.9 µM. The figures for the MIC (in data set [1]; in the data set on Staphylococcus aureus; against Escherichia coli) were 0.325 µM (≈ 0.0999 µg/mL), 407 µM (≈ 125 µg/mL) and 407 µM (≈ 125 µg/mL), respectively.
Take `COc1ccc(Oc2ccc(-c3nc(N)nc(N)n3)cc2)cc1`: the Activity result in the data set on A549 and with HepG2 was “Non-toxic” in each case. In addition, in data set [2], the inhibition at 10 µg/mL was found to be 37.5%. The values for the MIC (in data set [1]; against Staphylococcus aureus; against Escherichia coli) were more than 396 µM, 404 µM (≈ 125 µg/mL) and 404 µM (≈ 125 µg/mL), respectively.
For `Cc1cc(Oc2ccc(-c3nc(N)nc(N)n3)cc2)ccc1Cl`, the Activity result with A549 and with HepG2 was “Non-toxic” throughout. This compound showed an inhibition at 10 µg/mL in data set [2] of 7.27%. Moreover, the MIC was more than 381 µM in data set [1], 381 µM (≈ 125 µg/mL) in the data set with Staphylococcus aureus and 381 µM (≈ 125 µg/mL) against Escherichia coli.
For the compound `Cc1cccc(Oc2ccc(-c3nc(N)nc(N)n3)cc2)c1`, the Activity entry with A549 and with HepG2 was “Non-toxic” throughout. This compound also came in with an inhibition at 10 µg/mL in data set [2] of 15%. Besides, the MIC in data set [1] is more than 447 µM; with Staphylococcus aureus, 426 µM (≈ 125 µg/mL); in the data set on Escherichia coli, 426 µM (≈ 125 µg/mL).
Take `Cc1cc(Oc2ccc(-c3nc(N)nc(N)n3)cc2)cc(C)c1Cl`: the Activity result with A549 and in the data set with HepG2 was “Non-toxic” in each case. Also, the inhibition at 10 µg/mL in data set [2] turned out to be 14.5%. Besides, the MIC was more than 369 µM in data set [1], 366 µM (≈ 125 µg/mL) against Staphylococcus aureus and 366 µM (≈ 125 µg/mL) against Escherichia coli.
Turning to `Cc1cc(Cl)ccc1Oc1ccc(-c2nc(N)nc(N)n2)cc1`, the Activity result in the data set on A549 and in the data set on HepG2 was “Non-toxic” throughout. Moreover, in data set [2], the inhibition at 10 µg/mL worked out at 87.2%. The MIC in data set [1] was determined as 1.96 µM (≈ 0.642 µg/mL); with Staphylococcus aureus, 381 µM (≈ 125 µg/mL); against Escherichia coli it was 381 µM (≈ 125 µg/mL).
Take `CC(C)(C)c1ccc(Oc2ccc(-c3nc(N)nc(N)n3)cc2)cc1`: the Activity entry in the data set with A549 and with HepG2 was “Non-toxic” in each case. Also, the inhibition at 10 µg/mL in data set [2] amounted to 42.2%. Moreover, the MIC in data set [1] was more than 380 µM; against Staphylococcus aureus it was 373 µM (≈ 125 µg/mL); in the data set with Escherichia coli, 373 µM (≈ 125 µg/mL).
Consider `Nc1nc(N)nc(-c2ccc(Oc3ccc(Br)cc3)cc2)n1`, for which the Activity result in the data set on A549 and in the data set on HepG2 was “Non-toxic” throughout. The inhibition at 10 µg/mL in data set [2] worked out at 83%. The MIC in data set [1] came to 3.56 µM (≈ 1.28 µg/mL); in the data set on Staphylococcus aureus it was 349 µM (≈ 125 µg/mL); in the data set on Escherichia coli, 349 µM (≈ 125 µg/mL).
Turning to `Nc1nc(N)nc(-c2ccc(Oc3ccc(Cl)cc3Cl)cc2)n1`, the Activity result in the data set with A549 and in the data set with HepG2 was “Non-toxic” throughout. In addition, the inhibition at 10 µg/mL in data set [2] is 93.6%. In addition, the results for the MIC (in data set [1]; against Staphylococcus aureus; with Escherichia coli) were 3.59 µM (≈ 1.25 µg/mL), 359 µM (≈ 125 µg/mL) and 359 µM (≈ 125 µg/mL), respectively.
Turning to `Nc1nc(N)nc(-c2ccc(Oc3ccccc3Cl)cc2)n1`, the Activity entry in the data set on A549 and in the data set with HepG2 was “Non-toxic” each time. For the same compound, in data set [2], testing at 10 µg/mL gave an inhibition of 27.6%. For the same compound, the MIC in data set [1] was determined as 20.7 µM (≈ 6.5 µg/mL); in the data set on Staphylococcus aureus, 398 µM (≈ 125 µg/mL); against Escherichia coli it was 398 µM (≈ 125 µg/mL).
In data set [1], `NNC(=O)c1ccncc1` [ISONIAZID] had an MIC of 0.73 µM (≈ 0.1 µg/mL).
Same read-out and setting: to `CN(Cc1cnc2nc(N)nc(N)c2n1)c1ccc(C(=O)N[C@@H](CCC(=O)O)C(=O)O)cc1` [METHOTREXATE] belongs 0.968 µM (≈ 0.44 µg/mL).
With `COc1cc(Cc2cnc(N)nc2N)cc(OC)c1OC` [TRIMETHOPRIM], the MIC in data set [1] came to 28.9 µM (≈ 8.4 µg/mL).

Source of the values: ChEMBL document CHEMBL3751663, “Design and Synthesis of a Focused Library of Diamino Triazines as Potential Mycobacterium tuberculosis DHFR Inhibitors” (ACS Med Chem Lett, 2015).
